The text below walks through data of patent US12290526B2 (priority 2018, dated 2025).

For series [1] the following is noted: cited from earlier work.
Series [2] deals with gout induced by intra-articular uric acid at 20% in rats. The series can be described thus: PIFIR model (pain-induced functional impairment, uric acid 20%), analgesic activity after topical administration. It is filed as in vivo, Female Wistar rats. The settings on record: for ability to walk and visible adverse effects: doses used (3.2-31.6 mg/Kg topical), observation period of 5 h. The text has this: Female Wistar rats [Crl:(WI)BR] were employed with a weight of between 180 and 200 g. All the experimental procedures followed the recommendations of the committee for Research and Ethical Issues of the International Association for the Study of Pain and the Guidelines on Ethical Standards for Investigations of Experiment Pain in Animals. The number of animals for experimentation was kept to a minimum: 6 rats per experimental point. The animals were kept in a room with alternating dark/light cycles.
Twelve hours before the experiments, the fur that covers the rats' major muscle group that covers the femur (4 cm×4 cm) on the outer side of the hind right paw was very carefully clipped with some scissors, leaving the fur cut to a maximum length of 2 mm and taking care not to injure the rats' skin. Food was also removed at this moment, leaving them only free access to water. All the experiments were performed during the light phase, with the animals only being used once.
The analgesic effects are assessed employing the PIFIR model, in other words, the rats were anesthetized in a glass desiccator, saturated with ether vapor. The gout was induced by applying an intra-articular injection (i.a.) of 0.05 ml of uric acid suspended in mineral oil in the right hind member, exactly in the femur-tibia-kneecap joint. A 1 mL glass syringe with a 4-mm-long No. 22 needle is used for the intra-articular injection. Immediately afterwards, an electrode is attached to each hind paw in the middle of the plantar calluses. The rats were left to recover from the anesthesia and placed in a 30-cm-diameter rotary stainless-steel cylinder. The cylinder was turned at 4 r.p.m., forcing the rats to walk for 3 min every half hour, for a total of 5 hours. The variable measured was the contact time of each one of the rats' hind paws in the cylinder. When the electrode makes contact with the cylinder a circuit is closed and the ratio between the contact time of the injured paw in respect of the uninjured one was recorded on a computer.
The temporary courses of each treatment for 5 continuous hours were determined, employing an “n” of 6 rats per treatment. For the purpose of this study, inducing harm in the experimental animals was unavoidable. However, care was taken to avoid causing unnecessary suffering to the animals. At the end of the experimental determinations, the rats were immediately sacrificed.
From the aforementioned experimental model, the results obtained from the analgesic assessment of the combination are expressed as a Functionality Index percentage (FI %). This FI % is the ratio obtained by dividing the contact time of the limb with uric acid by the contact time of the limb against of the same rats, and multiplying the result by 100. The temporary course (TC) curves are built by plotting FI % or Dysfunction against time (h). The analgesic or antinociceptive effect was estimated as the recuperation of FI %. […] All the values plotted in the figures correspond to the mean±error standard for 6 animals.

For series [3] the following is noted: cited from earlier work. This is another data set of the same source.
Setting [4] is: 31.6 mg/Kg topical administration.

For the compound `O=C(O)COC(=O)Cc1ccccc1Nc1c(Cl)cccc1Cl` [aceclofenac, (2-{2-[(2,6-Dichlorophenyl)amino]phenyl}acetoxy) acetic acid], the “time over which the concentration in the top skin layers slowly declines” value in series [1] (after the drug product is removed from the skin) is on record as “more than 16 hours”. Besides, in series [1] (applied to the skin), the “amount of aceclofenac absorbed, of the total dose applied” value is listed as 13% and the “amount retained on the top layers of skin, of the dose applied” value is listed as 6 to 9%. The “maximum effect (Emax), recovery of Functionality Index percentage (FI %)” value in series [2] (31.6 mg/Kg topical administration, rats, uric acid 20%, 5 h observation, mean ± standard error, n=6) was determined as 42.0±6.9%. Moreover, the “analgesic effects in temporary courses (in words)” value in series [2] (3.16, 5.62, 10.0, 17.78 and 31.62 mg/Kg topical administration) is “does show analgesic effects”. Besides, the “ability to walk and visible adverse effects” value in series [2] is given as “did not affect the ability of the rats to walk during the observation period or cause any visible adverse effect”.
For `C[C@H]1C[C@H]2[C@@H]3CCC4=CC(=O)C=C[C@]4(C)[C@@]3(F)[C@@H](O)C[C@]2(C)[C@@]1(O)C(=O)CO` [betamethasone, (11ß,16ß)-9-fluoro-11,17,21-trihydroxy-16-methylpregna-1,4-diene-3,20-dione], the solubility in water result in series [3] is on record as “insoluble in water”. Besides, in series [2] (setting [4]), the “analgesic effects in temporary course (in words)” value was “modest analgesic effects” and the “time point of the maximum effect” value amounted to 3.5 h. In addition, the “analgesic effects in temporary courses (in words)” value in series [2] (3.16, 10.0 and 17.8 mg/Kg topical administration) was “does not generate analgesic effects”. In series [2], the “ability to walk and visible adverse effects” value is recorded as “did not affect the ability of the rats to walk during the observation period or cause any visible adverse effect”.
